Source: US4870002A, “Method of prevention of oxidative injury to cells” (priority 1985, dated 1989)
Where two headings read alike, the source gives them in different places.

Experiments:
[1] = Autoxidation of 3-amino-L-tyrosine solutions; format: physicochemical; settings: solutions yellow with age
Description: The binding of 3-amino-L-tyrosine to the cell membrane via its alpha amino group, and the subsequent inhibition of CL by inhibiting the binding of Lu-BSA, is unlikely. […] The subsequent washing removes loosely bound 3-amino-L-tyrosine and the addition of the Lu-BSA at pH 6.9 favors BSA binding by the Schiff base reaction. […] The yellowing of 3-amino-L-tyrosine solutions with age is evidence of the oxidation.

[2] = tested on: human KBE epidermoid carcinoma cells; assay: Survival after gamma irradiation by colony formation; format: cell-based; settings: for radioprotection, in words: low dose
Description: In those experiments performed with media containing phenol red, this medium was replaced (in
each flask) with 10 ml of fresh medium; the flasks were then reincubated at 37° C. for 1 hour. After this time, under yellow light, 0.05 ml aliquots of distilled water or solutions of 3-aminotyrosine were injected to give 1:200 dilutions. […] Flasks were irradiated at 0, 250, 500, or 1000 rads at room temperature as previously described. Efforts were made to keep light exposure to a minimum. For those flasks irradiated for 8 min (10 Gy), the temperature in the flasks would decrease during that interval to 30° C.
Immediately after the irradiations were complete, the attached cells were washed two times with Saline A salt solution, the trypsinized using standard procedures with 1.5 ml of trypsin-EDTA (GIBCO 610-5300). The cells were declumped after inactivation of the trypsin with fresh medium, and the cell density determined by Coulter counter. Cell dilutions of appropriate densities were made with fresh medium in sterile plastic conical centrifuge tubes, and 5 ml aliquots were seeded at two different dilutions for each treatment flask into fresh T-25 flasks (4 replicate flasks at each cell dilution). The flasks were all incubated for 7 days, at which time the old medium was aspirated and the cells were fixed in situ with 100% methanol. The colonies were then stained with 0.3% methylene blue, and rinsed with distilled water. After air drying, colonies greater than 1 mm in diameter were scored as viable colonies. The cloning efficiency in each flask was determined as described for the L5178Y cells above.
In one experiment, treatment with 3-aminotyrosine was performed using custom formulated Earle's BME medium without phenol red (GIBCO 85-0078). Prior to addition of 3-aminotyrosine, cells were washed free of the standard growth medium using Saline A without phenol red.

horseradish peroxidase = target: T1, horseradish peroxidase (Armoracia rusticana, UniProt P00433); assay: Inhibition of horseradish peroxidase; format: biochemical; settings: read-out: K1
T1 sequence (P00433 31-338 limits assumed): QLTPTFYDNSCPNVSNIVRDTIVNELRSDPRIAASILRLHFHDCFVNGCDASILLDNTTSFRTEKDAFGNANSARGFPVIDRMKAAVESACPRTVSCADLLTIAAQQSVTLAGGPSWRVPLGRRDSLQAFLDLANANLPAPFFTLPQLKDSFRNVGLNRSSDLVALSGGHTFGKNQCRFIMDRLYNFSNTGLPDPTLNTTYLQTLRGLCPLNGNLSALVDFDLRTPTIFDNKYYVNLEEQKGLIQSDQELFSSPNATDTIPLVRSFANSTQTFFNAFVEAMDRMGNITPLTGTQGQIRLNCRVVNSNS

[3] = tested on: Con A-Lu-BSA labeled pig RBCs; assay: Chemiluminescence of Con A-Lu-BSA labeled pig RBCs with exogenous hydrogen peroxide; format: cell-based
Description: The luminol-bovine serum albumin (Lu-BSA) complex was made by mixing 2 mg luminol (5-amino-2, 3-dihydrophthalazine-1,4-dione), 0.2 ml of 2 mg BSA/ml PBS (pH 6.9), and 1.6 ml of PBS, pH 6.9. The preparation was then passed through a 0.22 μm nitrocellulose filter to remove insoluble luminol. Next, 0.2 ml of 2 mg Con A/ml of PBS, pH 6.9, was added to the filtrate. After gentle mixing, 10 μl of 25% glutaraldehyde were added. The solution was incubated in the refrigerator for 1 hour. To stop the conjugation, 100 mg of glycine was added to the solution. The solution was then pressed through a 48 ml column of dextran gel filtration beads equilibrated with PBS, pH 6.9. The gel exclusion size was greater than 5000 for globular molecules. The fractions were collected and tested for luminescent labeling activity.
One ml of supernatant of each 10 ml aliquot of 1:20 diluted RBCs was replaced with 1 ml of Con A-Lu-BSA solution as previously described. The preparation was incubated for 15 min. at 37° C. in a water-jacketedcell culture incubator. The cells were then pelleted in a clinical centrifuge, resuspended in PBS, and washed in the same manner two additional times. The washed cells were maintained at 4° C. until used the same day of preparation.
Following exposure to chemical or physical stressors, 100 μl of the RBC suspension was added to 500 μl of PBS, pH 7.4, containing 0.3% hydrogen peroxide, in a scintillation vial. To activate the sample, 100 μl of 0.1N NaOH were added to the vial in place in an ATP photometer (Integrating ATP Photometer Model 3000, Science Applications, San Diego, California 92121) The photometer was set to a dark count of 1 count/30 second at a sensitivity of 600 at room temperature (approximately 23° C.). All counts followed a 5 second delay period to allow for stabilization of the photomultiplier. The counts are reported as counts/30 sec.
All essays were run at room temperature. The post-collection age of those cells was 11-18 days and the cells were used the day of labeling. […] Pyruvate (1.43 mM), an autoxidizable substrate, doubled the CL of labeled cells.

Nc1cc(C[C@H](N)C(=O)O)ccc1O [3-aminotyrosine, 3-amino-L-tyrosine]
autoxidation in solution, in words [1]: readily, autoxidizes | Ratio of Percent Survival, 3-Aminotyrosine/Control ([2]; Twenty-Four Hour Incubation (No Phenol Red), 250 rads, 2 micromoles/ml): 1.08 | Ratio of Percent Survival, 3-Aminotyrosine/Control ([2]; Twenty-Four Hour Incubation (No Phenol Red), 250 rads, 100 nanomoles/ml): 0.79 | Ratio of Percent Survival, 3-Aminotyrosine/Control ([2]; Twenty-Four Hour Incubation (No Phenol Red), 500 rads, 2 micromoles/ml): 1.49 | Ratio of Percent Survival, 3-Aminotyrosine/Control ([2]; Twenty-Four Hour Incubation (No Phenol Red), 500 rads, 100 nanomoles/ml): 0.48 | Ratio of Percent Survival, 3-Aminotyrosine/Control ([2]; Twenty-Four Hour Incubation (No Phenol Red), 1000 rads, 2 micromoles/ml): 2.61 | Ratio of Percent Survival, 3-Aminotyrosine/Control ([2]; Twenty-Four Hour Incubation (No Phenol Red), 1000 rads, 100 nanomoles/ml): 2.32 | Ratio of Percent Survival, 3-Aminotyrosine/Control ([2]; Twenty-Four Hour Incubation (Phenol Red Present), 250 rads, 2 micromoles/ml): 1.28 | Ratio of Percent Survival, 3-Aminotyrosine/Control ([2]; Twenty-Four Hour Incubation (Phenol Red Present), 250 rads, 100 nanomoles/ml): 1.53 | Ratio of Percent Survival, 3-Aminotyrosine/Control ([2]; Twenty-Four Hour Incubation (Phenol Red Present), 500 rads, 2 micromoles/ml): 2.91 | Ratio of Percent Survival, 3-Aminotyrosine/Control ([2]; Twenty-Four Hour Incubation (Phenol Red Present), 500 rads, 100 nanomoles/ml): 1.36 | Ratio of Percent Survival, 3-Aminotyrosine/Control ([2]; Twenty-Four Hour Incubation (Phenol Red Present), 1000 rads, 2 micromoles/ml): 4.65 | Ratio of Percent Survival, 3-Aminotyrosine/Control ([2]; Twenty-Four Hour Incubation (Phenol Red Present), 1000 rads, 100 nanomoles/ml): 1.63 | Ratio of Percent Survival, 3-Aminotyrosine/Control ([2]; Zero hour incubation, 250 rads, 2 micromoles/ml): 1.70 | Ratio of Percent Survival, 3-Aminotyrosine/Control ([2]; Zero hour incubation, 250 rads, 100 nanomoles/ml): 0.94 | Ratio of Percent Survival, 3-Aminotyrosine/Control ([2]; Zero hour incubation, 500 rads, 2 micromoles/ml): 1.25 | Ratio of Percent Survival, 3-Aminotyrosine/Control ([2]; Zero hour incubation, 500 rads, 100 nanomoles/ml): 0.81 | Ratio of Percent Survival, 3-Aminotyrosine/Control ([2]; Zero hour incubation, 1000 rads, 2 micromoles/ml): 2.26 | Ratio of Percent Survival, 3-Aminotyrosine/Control ([2]; Zero hour incubation, 1000 rads, 100 nanomoles/ml): 0.99 | effect on survival after irradiation, in words ([2]; high concentration, added 24 hours prior to exposure, medium containing phenol red): radioprotective effect | radioprotection, in words ([2]; 10 minute preincubations (0 hours)): no radioprotection | radioprotection, in words ([2]; pre-incubation for 24 hours): low-dose radioprotection | Ki (horseradish peroxidase): 5 µM | CL (30 sec) ([3]; 160 μM): 5,430 ± 1,266 counts/30 sec | CL (30 sec) ([3]; 1.44 mM): 844 ± 165 counts/30 sec | activity at 160 µM ([3]; Sus scrofa, Erythrocyte, 160 μM, read-out: Percent control): 18% | activity at 1440 µM ([3]; Sus scrofa, Erythrocyte, 1.44 mM, read-out: Percent control): 3% | activity at 11500 µM ([3]; Sus scrofa, Erythrocyte, pretreatment 11.5 mM, 30 min at room temperature, read-out: Percent control): 74% | inhibition at 160 µM ([3]; Sus scrofa, 160 μM, read-out: inhibition of CL of labeled RBCs): 82% | inhibition at 1440 µM ([3]; Sus scrofa, 1.44 mM, read-out: inhibition of CL of labeled RBCs): 97% | inhibition at 1440 µM ([3]; Sus scrofa, 1.44 mM, read-out: inhibition of the natural CL): 94% | inhibition at 11500 µM ([3]; Sus scrofa, pretreatment of labeled cells with 11.5 mM, 30 min at room temperature, read-out: inhibition of CL): 26% | CL (30 sec) ([3]; pretreatment 11.5 mM, 30 min at room temperature): 22,457 ± 2,128 counts/30 sec
